This assay has as its target T1, HPK1 (Homo sapiens, UniProt Q92918).
T1 construct: A HiBiT tag was introduced by CRISPR on the N terminus of HPK1 in Jurkat cells; host or cells: Jurkat cells (ATCC TIB-152), monoclonal line with CRISPR knock-in of HiBiT at the endogenous HPK1 locus
The experiment in a line: HPK1 Cellular HiBit Degradation Assay. The format is cell-based. The following applies: HiBiT HPK1 Jurkat cells, 24 hrs; for DC50: concentration at which 50% of HPK1 was remaining, read-out: DC50 Category; for Dmax: Jurkat, read-out: Dmax Category. The protocol:
HPK1 Cellular HiBit Degradation Assay
A HiBiT tag was introduced by CRISPR on the N terminus of HPK1 in Jurkat cells (ATCC® TIB-152) to allow quantitation of HPK1 protein levels in a monoclonal human cell line. Cells were plated at 1×10^6 cells/mL, 30 uL/well (3×10^4 cells/well) in complete RPMI 1640 (10% heat inactivated FBS, 1% L-glutamine) in 384-well assay plates (Corning, cat. no. 3570). HPK1 chimeric targeting molecules (CTMs) were added in an 11 point dilution series (11-point, 3.16-fold) with a final assay concentration range of 10 uM to 0.1 nM. The parental Jurkat cell line, with no HiBiT insertion, was included in the assay as a background control. Cell treated with a DMSO vehicle control was used to determine the maximum signal defining 100% HPK1 in the cell. Cells were incubated for 24 hrs at 37° C./5% CO2. Following incubation, 30 uL of complete Nano-Glo HiBiT Lytic Detection Reagent (Promega cat. no. N3040) was added. Cells were incubated for 10 min at room temperature and luminescence was read on an EnVision plate reader (Perkin Elmer, 0.1 sec per well). Viability was assessed in the same plate using Cell Titer Fluor (Promega) and read on an EnVision plate reader to ensure results were not the effect of cytotoxicity. Percent HPK1 remaining per sample was calculated as follows:
[formula] % HPK1 remaining values were plotted as a function of compound concentration and curves were fit using the Prism (GraphPad) equation “log(inhibitor) vs response−Variable slope (four parameters)”. Dmax values were calculated by identifying the lowest % remaining and subtracting from 100. DC50 values were determined by extrapolating from the curve the concentration at which 50% of HPK1 was remaining based on the DMSO control.
HiBiT HPK1 Jurkat cell lines were used to evaluate the total protein levels of HPK1 in a robust human cellular high throughput format. The level of HPK1 remaining following treatment with HPK1 CTMs is reported as Dmax (maximum degradation) achieved at 24 hours when compared to vehicle treated controls. […] These decreases were not a result of cytotoxicity measured by a viability assessment.

Where [1] appears, read: maximum degradation vs DMSO vehicle control.

T1 sequence (Q92918 whole entry): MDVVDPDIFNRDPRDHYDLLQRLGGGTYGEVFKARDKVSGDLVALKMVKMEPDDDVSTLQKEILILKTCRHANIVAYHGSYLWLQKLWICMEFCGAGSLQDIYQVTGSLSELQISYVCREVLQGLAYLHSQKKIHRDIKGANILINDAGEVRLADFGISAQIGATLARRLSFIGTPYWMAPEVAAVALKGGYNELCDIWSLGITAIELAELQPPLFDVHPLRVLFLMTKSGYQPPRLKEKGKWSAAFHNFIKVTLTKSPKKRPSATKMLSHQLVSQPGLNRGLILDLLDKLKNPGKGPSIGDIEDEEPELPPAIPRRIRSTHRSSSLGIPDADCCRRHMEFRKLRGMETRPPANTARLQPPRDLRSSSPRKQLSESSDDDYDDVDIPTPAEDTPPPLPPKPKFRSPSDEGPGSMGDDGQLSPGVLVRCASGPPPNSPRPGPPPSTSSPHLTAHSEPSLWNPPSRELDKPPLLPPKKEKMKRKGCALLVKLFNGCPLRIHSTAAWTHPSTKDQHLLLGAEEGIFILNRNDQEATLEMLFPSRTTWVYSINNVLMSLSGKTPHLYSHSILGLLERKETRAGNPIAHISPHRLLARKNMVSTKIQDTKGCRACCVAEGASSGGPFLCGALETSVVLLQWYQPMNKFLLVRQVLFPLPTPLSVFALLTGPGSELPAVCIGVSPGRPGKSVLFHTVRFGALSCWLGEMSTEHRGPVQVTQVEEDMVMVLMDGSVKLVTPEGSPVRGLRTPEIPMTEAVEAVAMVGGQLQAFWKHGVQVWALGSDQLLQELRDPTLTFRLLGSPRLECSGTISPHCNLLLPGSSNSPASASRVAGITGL

As to `CC(C)n1cnc2cc(-c3ccc4c(c3)N([C@H]3C[C@@H](N5CCCCC5)C3)C(=O)C43CCN(C(=O)[C@@H]4CCN(C(=O)[C@H]5CC[C@H](Oc6ccc(C7CCC(=O)NC7=O)cn6)CC5)C4)CC3)nc(NC3CCOCC3)c21` (mixture of isomers) [Example 19, (3RS)-3-(6-{[(1R,4R)-4-[(3R)-3-[(6-{4-[(oxan-4-yl)amino]-3-(propan-2-yl)-3H-imidazo[4,5-c]pyridin-6-yl}-2-oxo-1-[(1S,3S)-3-(piperidin-1-yl)cyclobutyl]-1,2-dihydrospiro[indole-3,4′-piperidin]-1′-yl)carbonyl]pyrrolidine-1-carbonyl]cyclohexyl]oxy}pyridin-3-yl)piperidine-2,6-dione], the 50% degradation concentration (DC50) is less than 100 nM. Also, the maximal degradation (Dmax) under setting [1] lay within 70 to 85%.

For the compound `CC(C)n1cnc2cc(-c3ccc4c(c3)N([C@H]3C[C@@H](N5CCCCC5)C3)C(=O)C43CCN(C(=O)[C@@H]4CCN(C(=O)C5CCN(c6ccc(C7CCC(=O)NC7=O)cn6)CC5)C4)CC3)nc(NC3CC3)c21` (mixture of isomers) [Example 23, (3RS)-3-(6-{4-[(3R)-3-({6-[4-(cyclopropylamino)-3-(propan-2-yl)-3H-imidazo[4,5-c]pyridin-6-yl]-2-oxo-1-[(1S,3S)-3-(piperidin-1-yl)cyclobutyl]-1,2-dihydrospiro[indole-3,4′-piperidin]-1′-yl}carbonyl)pyrrolidine-1-carbonyl]piperidin-1-yl}pyridin-3-yl)piperidine-2,6-dione], the DC50 was less than 100 nM. For the same compound, the Dmax under setting [1] was in the range of 70 to 85%.

As to `CC(C)n1cnc2cc(-c3ccc4c(c3)N(C3CC(N5CCCCC5)C3)C(=O)C43CCN(C(=O)[C@@H]4CCN(C(=O)C5CCN(c6ccc(C7CCC(=O)NC7=O)cn6)CC5)C4)CC3)nc(Nc3ccncc3F)c21` (mixture of isomers) [Example 25, (3RS)-3-(6-{4-[(3R)-3-[(6-{4-[(3-fluoropyridin-4-yl)amino]-3-(propan-2-yl)-3H-imidazo[4,5-c]pyridin-6-yl}-2-oxo-1-[(1S,3S)-3-(piperidin-1-yl)cyclobutyl]-1,2-dihydrospiro[indole-3,4′-piperidin]-1′-yl)carbonyl]pyrrolidine-1-carbonyl]piperidin-1-yl}pyridin-3-yl)piperidine-2,6-dione], the DC50 was less than 100 nM. Further, under setting [1], the “Dmax Category” value was “B (B: >70%-<85%)”.

Regarding `CC(C)n1cnc2cc(-c3ccc4c(c3)N([C@H]3C[C@@H](N5CCCCC5)C3)C(=O)C43CCN(C(=O)[C@H]4CC[C@H](C(=O)N5CCC(Nc6ccc(C7CCC(=O)NC7=O)cn6)CC5)CC4)CC3)nc(Nc3ccncc3F)c21` (mixture of isomers) [Example 27], the DC50 was less than 100 nM. Moreover, the greatest degradation seen (Dmax) under setting [1] lay within 50 to 70%.

As for `CC(C)n1cnc2cc(-c3ccc4c(c3)N([C@H]3C[C@@H](N5CCCCC5)C3)C(=O)C43CCN(C(=O)[C@H]4CC[C@H](C(=O)N5CCC(Oc6ccc(C7CCC(=O)NC7=O)cn6)CC5)CC4)CC3)nc(Nc3ccccc3F)c21` (mixture of isomers) [Example 28, (3RS)-3-[6-({1-[(1R,4R)-4-[(6-{4-[(2-fluorophenyl)amino]-3-(propan-2-yl)-3H-imidazo[4,5-c]pyridin-6-yl}-2-oxo-1-[(1S,3S)-3-(piperidin-1-yl)cyclobutyl]-1,2-dihydrospiro[indole-3,4′-piperidin]-1′-yl)carbonyl]cyclohexanecarbonyl]piperidin-4-yl}oxy)pyridin-3-yl]piperidine-2,6-dione], the DC50 was less than 100 nM. In addition, under setting [1], the Dmax was in the range of 70 to 85%.

Take `CC(C)n1cnc2cc(-c3ccc4c(c3)N([C@H]3C[C@@H](N5CCCCC5)C3)C(=O)C43CCN(C(=O)[C@H]4CC[C@@H](C(=O)N5CCC(Nc6ccc(C7CCC(=O)NC7=O)cn6)CC5)CC4)CC3)nc(NC3CC3)c21` (mixture of isomers) [Example 29, (3RS)-3-[6-({1-[(1S,4S)-4-({6-[4-(cyclopropylamino)-3-(propan-2-yl)-3H-imidazo[4,5-c]pyridin-6-yl]-2-oxo-1-[(1S,3S)-3-(piperidin-1-yl)cyclobutyl]-1,2-dihydrospiro[indole-3,4′-piperidin]-1′-yl}carbonyl)cyclohexanecarbonyl]piperidin-4-yl}amino)pyridin-3-yl]piperidine-2,6-dione]: the DC50 is less than 100 nM. Besides, the Dmax under setting [1] lay within 50 to 70%.

Turning to `CC(C)n1cnc2cc(-c3ccc4c(c3)N([C@H]3C[C@@H](N5CCCCC5)C3)C(=O)C43CCN(C(=O)[C@H]4CC[C@@H](C(=O)N5CCC(Nc6ccc(C7CCC(=O)NC7=O)cn6)CC5)CC4)CC3)nc(Nc3ccccc3F)c21` (mixture of isomers) [Example 30, (3RS)-3-[6-({1-[(1S,4S)-4-[(6-{4-[(2-fluorophenyl)amino]-3-(propan-2-yl)-3H-imidazo[4,5-c]pyridin-6-yl}-2-oxo-1-[(1S,3S)-3-(piperidin-1-yl)cyclobutyl]-1,2-dihydrospiro[indole-3,4′-piperidin]-1′-yl)carbonyl]cyclohexanecarbonyl]piperidin-4-yl}amino)pyridin-3-yl]piperidine-2,6-dione], the DC50 is less than 100 nM. Under setting [1], the Dmax fell in the range of 70 to 85%.

In the case of `CC(C)n1cnc2cc(-c3ccc4c(c3)N([C@H]3C[C@@H](N5CCCCC5)C3)C(=O)C43CCN(C(=O)[C@H]4CC[C@@H](C(=O)N5CCN(c6ccc7c(c6)C(=O)N(C6CCC(=O)NC6=O)C7=O)CC5)CC4)CC3)nc(Nc3ccccc3F)c21` (mixture of isomers) [Example 31, 2-[(3RS)-2,6-dioxopiperidin-3-yl]-5-{4-[(1S,4s)-4-[(6-{4-[(2-fluorophenyl)amino]-3-(propan-2-yl)-3H-imidazo[4,5-c]pyridin-6-yl}-2-oxo-1-[(1S,3S)-3-(piperidin-1-yl)cyclobutyl]-1,2-dihydrospiro[indole-3,4′-piperidin]-1′-yl)carbonyl]cyclohexanecarbonyl]piperazin-1-yl}-2,3-dihydro-1H-isoindole-1,3-dione], the DC50 was in the range of 100 to 500 nM. Further, the Dmax under setting [1] was in the range of 70 to 85%.

In the case of `CC(C)n1cnc2cc(-c3ccc4c(c3)N([C@H]3C[C@@H](N5CCCCC5)C3)C(=O)C43CCN(C(=O)[C@H]4CCN(C(=O)C5CCN(c6ccc(C7CCC(=O)NC7=O)cn6)CC5)C4)CC3)nc(NC3CC3)c21` (mixture of isomers) [Example 32, (3RS)-3-(6-{4-[(3S)-3-({6-[4-(cyclopropylamino)-3-(propan-2-yl)-3H-imidazo[4,5-c]pyridin-6-yl]-2-oxo-1-[(1S,3S)-3-(piperidin-1-yl)cyclobutyl]-1,2-dihydrospiro[indole-3,4′-piperidin]-1′-yl}carbonyl)pyrrolidine-1-carbonyl]piperidin-1-yl}pyridin-3-yl)piperidine-2,6-dione], the DC50 was in the range of 100 to 500 nM. Further, the Dmax under setting [1] fell in the range of 50 to 70%.

Consider `CC(C)n1cnc2cc(-c3ccc4c(c3)N([C@H]3C[C@@H](N5CCCCC5)C3)C(=O)C43CCN(C(=O)[C@H]4CCN(C(=O)C5CCN(c6ccc(C7CCC(=O)NC7=O)cn6)CC5)C4)CC3)nc(Nc3ccccc3F)c21` (mixture of isomers) [Example 33, (3RS)-3-(6-{4-[(3S)-3-[(6-{4-[(2-fluorophenyl)amino]-3-(propan-2-yl)-3H-imidazo[4,5-c]pyridin-6-yl}-2-oxo-1-[(1S,3S)-3-(piperidin-1-yl)cyclobutyl]-1,2-dihydrospiro[indole-3,4′-piperidin]-1′-yl)carbonyl]pyrrolidine-1-carbonyl]piperidin-1-yl}pyridin-3-yl)piperidine-2,6-dione], for which the DC50 is less than 100 nM. Under setting [1], the Dmax fell in the range of 70 to 85%.

`CC(C)n1cnc2cc(-c3ccc4c(c3)N([C@H]3C[C@@H](N5CCCCC5)C3)C(=O)C43CCN(C(=O)[C@H]4CCN(C(=O)C5CCN(c6ccc(C7CCC(=O)NC7=O)cn6)CC5)C4)CC3)nc(Nc3ccncc3F)c21` (mixture of isomers) [Example 34, (3RS)-3-(6-{4-[(3S)-3-[(6-{4-[(3-fluoropyridin-4-yl)amino]-3-(propan-2-yl)-3H-imidazo[4,5-c]pyridin-6-yl}-2-oxo-1-[(1S,3S)-3-(piperidin-1-yl)cyclobutyl]-1,2-dihydrospiro[indole-3,4′-piperidin]-1′-yl)carbonyl]pyrrolidine-1-carbonyl]piperidin-1-yl}pyridin-3-yl)piperidine-2,6-dione]: the DC50 fell in the range of 100 to 500 nM. In addition, the greatest degradation seen (Dmax) under setting [1] is 50 to 70%.

The record behind these values is patent publication US12091426B2, “Bifunctional degraders of hematopoietic progenitor kinase and therapeutic uses thereof” (Nurix Therapeutics, Inc., priority 2021, dated 2024).
